# Biological target: T1, Full-length, GST-tagged, human CaMKIIδ (Homo sapiens, UniProt Q13557)
# T1 construct: Full-Length, Glutathione-S-Transferase(GST)-Tagged, Human CaMKIIδ was purchased from Carna Biosciences; purchased Carna Biosciences 02-111
# Assay: CaMKIIδ binding assay (TR-FRET with BODIPY-labeled probe ligand)
# Conditions: CaMKIIδ binding assay, results of Table 2
# Outline: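 TR-FRET probe-displacement binding: 0.5 nM GST-CaMKIIδ with 10 μg/mL calmodulin, 1 mM CaCl2, 0.21 nM Tb-anti-GST Ab and 300 nM BODIPY probe in HEPES pH 7.6 buffer. Eight-point 4-fold dilutions, 1 hr at room temperature. IC50 from logistic fit; 100% inhibition defined by 3 μM parent compound.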
# T1 sequence (Q13557 1-478 isoform Q13557-12): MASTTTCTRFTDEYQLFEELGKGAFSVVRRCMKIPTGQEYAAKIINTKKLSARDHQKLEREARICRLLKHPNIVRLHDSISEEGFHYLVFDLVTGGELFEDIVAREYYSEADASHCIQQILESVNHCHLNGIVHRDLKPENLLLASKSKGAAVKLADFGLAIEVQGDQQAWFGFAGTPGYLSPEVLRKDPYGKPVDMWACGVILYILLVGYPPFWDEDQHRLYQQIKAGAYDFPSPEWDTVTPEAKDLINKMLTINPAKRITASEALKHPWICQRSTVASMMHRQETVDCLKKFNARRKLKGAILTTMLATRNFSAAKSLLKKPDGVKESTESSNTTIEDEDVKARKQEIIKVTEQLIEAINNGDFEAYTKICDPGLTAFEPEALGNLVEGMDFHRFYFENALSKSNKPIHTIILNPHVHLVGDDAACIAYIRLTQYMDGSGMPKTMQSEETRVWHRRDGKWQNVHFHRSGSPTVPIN
row,Structure (SMILES),IC50
1,"C[C@@H](Cn1cnnn1)Oc1cc(-c2cnc(Nc3cc(N4CCN(C5CCOCC5)CC4)ncc3OC(F)(F)F)nc2)ccc1Cl [Example 541, (S)-5-(3-((1-(1H-tetrazol-1-yl)propan-2-yl)oxy)-4-chlorophenyl)-N-(2-(4-(tetrahydro-2H-pyran-4-yl)piperazin-1-yl)-5-(trifluoromethoxy)pyridin-4-yl)pyrimidin-2-amine]",< 10 nM
2,"C[C@@H](Cn1cnnn1)Oc1cc(-c2cnc(Nc3cc(N4CCN(C5CCOCC5)CC4)ncc3OC(F)(F)F)nc2)ccc1C#N [Example 542, (S)-2-((1-(1H-tetrazol-1-yl)propan-2-yl)oxy)-4-(2-((2-(4-(tetrahydro-2H-pyran-4-yl)piperazin-1-yl)-5-(trifluoromethoxy)pyridin-4-yl)amino)pyrimidin-5-yl)benzonitrile]",< 10 nM
3,"C[C@@H](Cn1cnnn1)Oc1cc(-c2cnc(Nc3cc(N4CCC(N5CCOCC5)CC4)ncc3OC(F)(F)F)nc2)ccc1C#N [Example 543, (S)-2-((1-(1H-tetrazol-1-yl)propan-2-yl)oxy)-4-(2-((2-(4-morpholinopiperidin-1-yl)-5-(trifluoromethoxy)pyridin-4-yl)amino)pyrimidin-5-yl)benzonitrile]",< 10 nM
4,"COc1ccc(C(=O)N2CCCN(C)CC2)cc1Nc1ncc(-c2ccc(Cl)c(O[C@@H](C)Cn3cnnn3)c2)cn1 [Example 544, (S)-(3-((5-(3-((1-(1H-tetrazol-1-yl)propan-2-yl)oxy)-4-chlorophenyl)pyrimidin-2-yl)amino)-4-methoxyphenyl) (4-methyl-1,4-diazepan-1-yl)methanone]",< 10 nM
5,"C[C@@H](Cn1cnnn1)Oc1cc(-c2cnc(Nc3cn(C4CCN(C5CCOCC5)CC4)nc3C3CC3)nc2)ccc1Cl [Example 545, (S)-5-(3-((1-(1H-tetrazol-1-yl)propan-2-yl)oxy)-4-chlorophenyl)-N-(3-cyclopropyl-1-(1-(tetrahydro-2H-pyran-4-yl)piperidin-4-yl)-1H-pyrazol-4-yl)pyrimidin-2-amine]",< 10 nM
6,"C[C@@H](Cn1cnnn1)Oc1cc(-c2cnc(Nc3cn(C4CCN(C5CCOCC5)CC4)nc3C3CC3)nc2)ccc1C#N [Example 546, (S)-2-((1-(1H-tetrazol-1-yl)propan-2-yl)oxy)-4-(2-((3-cyclopropyl-1-(1-(tetrahydro-2H-pyran-4-yl)piperidin-4-yl)-1H-pyrazol-4-yl)amino)pyrimidin-5-yl)benzonitrile]",< 10 nM
7,"C[C@@H](Cn1cnnn1)Oc1cc(-c2cnc(Nc3cn(C4CCN(CCC(C)(C)C)CC4)nc3C(F)(F)F)nc2)ccc1Cl [Example 547, (S)-5-(3-((1-(1H-tetrazol-1-yl)propan-2-yl)oxy)-4-chlorophenyl)-N-(1-(1-(3,3-dimethylbutyl)piperidin-4-yl)-3-(trifluoromethyl)-1H-pyrazol-4-yl)pyrimidin-2-amine]",< 10 nM
8,"C[C@@H](Cn1cnnn1)Oc1cc(-c2cnc(Nc3cn(C4CCN(Cc5ccccc5)CC4)nc3C(F)(F)F)nc2)ccc1Cl [Example 548, (S)-5-(3-((1-(1H-tetrazol-1-yl)propan-2-yl)oxy)-4-chlorophenyl)-N-(1-(1-benzylpiperidin-4-yl)-3-(trifluoromethyl)-1H-pyrazol-4-yl)pyrimidin-2-amine]",< 10 nM
9,"C[C@@H](Cn1cnnn1)Oc1cc(-c2cnc(Nc3cn(C4CCN(CC5CC5)CC4)nc3C(F)(F)F)nc2)ccc1Cl [Example 549, (S)-5-(3-((1-(1H-tetrazol-1-yl)propan-2-yl)oxy)-4-chlorophenyl)-N-(1-(1-(cyclopropylmethyl)piperidin-4-yl)-3-(trifluoromethyl)-1H-pyrazol-4-yl)pyrimidin-2-amine]",< 10 nM
10,"C[C@@H](Cn1cnnn1)Oc1cc(-c2cnc(Nc3cn(C4CCN(Cc5ccncc5)CC4)nc3C(F)(F)F)nc2)ccc1Cl [Example 550, (S)-5-(3-((1-(1H-tetrazol-1-yl)propan-2-yl)oxy)-4-chlorophenyl)-N-(1-(1-(pyridin-4-ylmethyl)piperidin-4-yl)-3-(trifluoromethyl)-1H-pyrazol-4-yl)pyrimidin-2-amine]",10 to 100 nM
11,"C[C@@H](Cn1cnnn1)Oc1cc(-c2cnc(Nc3cn(C4CCN(Cc5nccs5)CC4)nc3C(F)(F)F)nc2)ccc1Cl [Example 551, (S)-5-(3-((1-(1H-tetrazol-1-yl)propan-2-yl)oxy)-4-chlorophenyl)-N-(1-(1-(thiazol-2-ylmethyl)piperidin-4-yl)-3-(trifluoromethyl)-1H-pyrazol-4-yl)pyrimidin-2-amine]",10 to 100 nM
12,"C[C@@H](Cn1cnnn1)Oc1cc(-c2cnc(Nc3cn(C4CCN(C5CCOC5)CC4)nc3C(F)(F)F)nc2)ccc1Cl (stereo partly drawn) [Example 552, 5-(3-(((S)-1-(1H-tetrazol-1-yl)propan-2-yl)oxy)-4-chlorophenyl)-N-(1-(1-(tetrahydrofuran-3-yl)piperidin-4-yl)-3-(trifluoromethyl)-1H-pyrazol-4-yl)pyrimidin-2-amine]",< 10 nM
13,"COCC(C)N1CCC(n2cc(Nc3ncc(-c4ccc(Cl)c(O[C@@H](C)Cn5cnnn5)c4)cn3)c(C(F)(F)F)n2)CC1 (stereo partly drawn) [Example 553, 5-(3-(((S)-1-(1H-tetrazol-1-yl)propan-2-yl)oxy)-4-chlorophenyl)-N-(1-(1-(1-methoxypropan-2-yl)piperidin-4-yl)-3-(trifluoromethyl)-1H-pyrazol-4-yl)pyrimidin-2-amine]",< 10 nM
14,"COC1CCCCC1N1CCC(n2cc(Nc3ncc(-c4ccc(Cl)c(O[C@@H](C)Cn5cnnn5)c4)cn3)c(C(F)(F)F)n2)CC1 (stereo partly drawn) [Example 554, 5-(3-(((S)-1-(1H-tetrazol-1-yl)propan-2-yl)oxy)-4-chlorophenyl)-N-(1-(1-(2-methoxycyclohexyl)piperidin-4-yl)-3-(trifluoromethyl)-1H-pyrazol-4-yl)pyrimidin-2-amine]",< 10 nM
15,"C[C@@H](Cn1cnnn1)Oc1cc(-c2cnc(Nc3cn(C4CCN(C5CCC(F)(F)CC5)CC4)nc3C(F)(F)F)nc2)ccc1Cl [Example 555, (S)-5-(3-((1-(1H-tetrazol-1-yl)propan-2-yl)oxy)-4-chlorophenyl)-N-(1-(1-(4,4-difluorocyclohexyl)piperidin-4-yl)-3-(trifluoromethyl)-1H-pyrazol-4-yl)pyrimidin-2-amine]",< 10 nM
16,"C[C@@H](Cn1cnnn1)Oc1cc(-c2cnc(Nc3cn(C4CCN(C5CCOC(C)(C)C5)CC4)nc3C(F)(F)F)nc2)ccc1Cl (stereo partly drawn) [Example 557, 5-(3-(((S)-1-(1H-tetrazol-1-yl)propan-2-yl)oxy)-4-chlorophenyl)-N-(1-(1-(2,2-dimethyltetrahydro-2H-pyran-4-yl)piperidin-4-yl)-3-(trifluoromethyl)-1H-pyrazol-4-yl)pyrimidin-2-amine]",< 10 nM
17,"C[C@@H](Cn1cnnn1)Oc1cc(-c2cnc(Nc3cn(C4CCN(C5CCN(C6CC6)CC5)CC4)nc3C(F)(F)F)nc2)ccc1Cl [Example 558, (S)-5-(3-((1-(1H-tetrazol-1-yl)propan-2-yl)oxy)-4-chlorophenyl)-N-(1-(1′-cyclopropyl-[1,4′-bipiperidin]-4-yl)-3-(trifluoromethyl)-1H-pyrazol-4-yl)pyrimidin-2-amine]",< 10 nM
18,"C[C@@H](Cn1cnnn1)Oc1cc(-c2cnc(Nc3cn(C4CCN(C5CCN(C)CC5)CC4)nc3C(F)(F)F)nc2)ccc1Cl [Example 559, (S)-5-(3-((1-(1H-tetrazol-1-yl)propan-2-yl)oxy)-4-chlorophenyl)-N-(1-(1'-methyl-[1,4'-bipiperidin]-4-yl)-3-(trifluoromethyl)-1H-pyrazol-4-yl)pyrimidin-2-amine]",< 10 nM
19,"C[C@@H](Cn1cnnn1)Oc1cc(-c2cnc(Nc3cn(C4CCN(Cc5ccsc5)CC4)nc3C(F)(F)F)nc2)ccc1Cl [Example 560, (S)-5-(3-((1-(1H-tetrazol-1-yl)propan-2-yl)oxy)-4-chlorophenyl)-N-(1-(1-(thiophen-3-ylmethyl)piperidin-4-yl)-3-(trifluoromethyl)-1H-pyrazol-4-yl)pyrimidin-2-amine]",< 10 nM
20,"C[C@@H](Cn1cnnn1)Oc1cc(-c2cnc(Nc3cn(C4CCN(Cc5cc[nH]n5)CC4)nc3C(F)(F)F)nc2)ccc1Cl [Example 561, (S)-N-(1-(1-((1H-pyrazol-3-yl)methyl)piperidin-4-yl)-3-(trifluoromethyl)-1H-pyrazol-4-yl)-5-(3-((1-(1H-tetrazol-1-yl)propan-2-yl)oxy)-4-chlorophenyl)pyrimidin-2-amine]",< 10 nM
21,"C[C@@H](Cn1cnnn1)Oc1cc(-c2cnc(Nc3cn(C4CCN(C5COC5)CC4)nc3C(F)(F)F)nc2)ccc1Cl [Example 562, (S)-5-(3-((1-(1H-tetrazol-1-yl)propan-2-yl)oxy)-4-chlorophenyl)-N-(1-(1-(oxetan-3-yl)piperidin-4-yl)-3-(trifluoromethyl)-1H-pyrazol-4-yl)pyrimidin-2-amine]",10 to 100 nM
22,"C[C@@H](Cn1cnnn1)Oc1cc(-c2cnc(Nc3cn(C4CCN(Cc5cccnc5)CC4)nc3C(F)(F)F)nc2)ccc1Cl [Example 563, (S)-5-(3-((1-(1H-tetrazol-1-yl)propan-2-yl)oxy)-4-chlorophenyl)-N-(1-(1-(pyridin-3-ylmethyl)piperidin-4-yl)-3-(trifluoromethyl)-1H-pyrazol-4-yl)pyrimidin-2-amine]",10 to 100 nM
23,"C[C@@H](Cn1cnnn1)Oc1cc(-c2cnc(Nc3cn(C4CCN(Cc5ccccn5)CC4)nc3C(F)(F)F)nc2)ccc1Cl [Example 564, (S)-5-(3-((1-(1H-tetrazol-1-yl)propan-2-yl)oxy)-4-chlorophenyl)-N-(1-(1-(pyridin-2-ylmethyl)piperidin-4-yl)-3-(trifluoromethyl)-1H-pyrazol-4-yl)pyrimidin-2-amine]",< 10 nM
24,"C[C@@H](Cn1cnnn1)Oc1cc(-c2cnc(Nc3cn(C4CCN(C5CCS(=O)(=O)CC5)CC4)nc3C(F)(F)F)nc2)ccc1Cl [Example 565, (S)-4-(4-(4-((5-(3-((1-(1H-tetrazol-1-yl)propan-2-yl)oxy)-4-chlorophenyl)pyrimidin-2-yl)amino)-3-(trifluoromethyl)-1H-pyrazol-1-yl)piperidin-1-yl)tetrahydro-2H-thiopyran 1,1-dioxide]",< 10 nM
